Reference: ChEMBL document CHEMBL1156238, “Allosteric inhibitors of hepatitis C virus NS5B polymerase thumb domain site II: structure-based design and synthesis of new templates” (Bioorg Med Chem, 2010)
pEC50, pIC50: −log10 of the molar value. Calls of active or inactive are those of the source. The rule behind the calls is not given here.

Experiments:
Hepatitis C virus [1] = assay: Antiviral activity against Hepatitis C virus H2B2; assay type: functional, organism-based, Hepacivirus hominis; details: for pEC50: Hepatitis C virus, H2B2, read-out: EC50
[2] = Inhibition of HCV genotype 2b NS5B polymerase deltaC21 mutant; design: species or system Hepatitis C virus subtype 2b
Hepatitis C virus [3] = assay: Antiviral activity against HCV infected in human HBI10A cells; assay type: functional, organism-based, Hepacivirus hominis
[4] = Selectivity index, ratio of CC50 for human HBI10A cells to EC50 for Hepatitis C virus; assay type: toxicity, cell-based; details: read-out: Ratio CC50/EC50
Hepatitis C virus [5] = assay: Inhibition of HCV genotype 1b NS5B polymerase deltaC21 mutant; assay type: functional, Hepatitis C virus subtype 1b
[6] = Cytotoxicity against human HBI10A cells; assay type: cell-based
Hepatitis C virus [7] = assay: Inhibition of HCV genotype 1b NS5B polymerase deltaC21 M423K mutant at 2 uM; assay type: functional; details: Hepatitis C virus subtype 1b
Hepatitis C virus [8] = assay: Inhibition of HCV genotype 1b NS5B polymerase deltaC21 M423K mutant; assay type: functional, Hepatitis C virus subtype 1b
Hepatitis C virus [9] = assay: Antiviral activity against Hepatitis C virus at 20 uM; details: Hepacivirus hominis
Hepatitis C virus [10] = assay: Inhibition of HCV genotype 1b NS5B polymerase deltaC21 M423K mutant at 50 uM; assay type: functional; details: Hepatitis C virus subtype 1b
Hepatitis C virus [11] = assay: Inhibition of HCV genotype 1b NS5B polymerase deltaC21 mutant at 50 uM; assay type: functional; details: Hepatitis C virus subtype 1b

Row | SMILES | pEC50 (Hepatitis C virus [1]) | pIC50 [2] | pEC50 (Hepatitis C virus [3]) | selectivity ratio [4] | pIC50 (Hepatitis C virus [5]; read-out: IC50) | CC50 ([6]; HBI10A cells, read-out: CC50) | inhibition (Hepatitis C virus [7]) | pIC50 (Hepatitis C virus [8]) | inhibition (Hepatitis C virus [9]) | inhibition (Hepatitis C virus [10]) | inhibition (Hepatitis C virus [11]) | EC50 (Hepatitis C virus [1]) | CC50 ([6]; hbi10a) | pIC50 (Hepatitis C virus [5])
1 | Cc1c(NCCO)ccc2c(=O)n(-c3cccc(Cl)c3)c(=O)n(C)c12 | < 4.00 | 5.28 | 4.40 | > 2.5 | 5.62 | > 100 µM |  |  |  |  |  |  |  | 
2 | Cc1c(NC2CCN(Cc3ccccc3)CC2)ccc2c(=O)n(-c3cccc(Cl)c3)c3nncn3c12 | > 4.00 | 6.40 | 5.52 | 3 | 5.18 | 9 µM |  |  |  |  |  |  |  | 
3 | O=C1c2cccc3c(NCCO)ccc(c23)C(=O)N1c1cccc(Br)c1 | 4.74 | 6.74 |  |  | 7.70 | 68 µM | inactive |  |  |  |  |  |  | 
4 | O=C(O)c1cc(Cl)cc(-n2c(=O)c3ccc(NC4CCN(Cc5ccccc5)CC4)c4c3n(c2=O)CCC4)c1 | 4.70 | 6.14 | 5.39 | 10 | 6.80 | 42 µM |  |  |  |  |  |  |  | 
5 | Cn1c(=O)n(-c2cccc(Cl)c2)c(=O)c2ccc(NC3CCN(Cc4ccccc4)CC3)cc21 | < 4.60 | 5.89 | 4.96 | 0.9 | 7.12 | 9.9 µM |  |  |  |  |  |  |  | 
6 | O=C1c2cccc3c(NCCO)ccc(c23)C(=O)N1c1cccc(Cl)c1 | 4.46 | 6.68 | 5.08 | 6.8 | 7.41 | 57 µM |  |  |  |  |  |  |  | 
7 | O=c1c2ccc(NCCO)c3c2n(c(=O)n1-c1cccc(Cl)c1)CCC3 | 4.59 | 6.17 | 4.82 | 0.8 | 6.70 | 12 µM |  |  |  |  |  |  |  | 
8 | CC[n+]1c(-c2ccccc2)c2cc(N)ccc2c2ccc(N)cc21 [HOMIDIUM BROMIDE] |  |  |  | 0.85 | 6.09 | 0.7 µM |  | 5.42 |  |  |  |  |  | 
9 | Cn1c(=O)n(-c2cccc(Cl)c2)c(=O)c2ccc(NCCO)cc21 | < 4.00 | 5.09 | 4.40 |  | 5.70 | > 100 µM |  |  |  |  |  |  |  | 
10 | C=C[C@H]1CN2CC[C@H]1C[C@H]2[C@H](O)c1ccnc2ccc(OC)cc12 |  |  |  |  |  |  |  |  | inactive | inactive | inactive |  |  | 
11 | O=c1[nH]c2cc(NCCO)ccc2c(=O)n1-c1cccc(Cl)c1 | < 4.00 | < 4.30 | < 4.00 |  | 5.26 | > 100 µM |  |  |  |  |  |  |  | 
12 | O=c1c2ccc(NCCO)cc2n2ccnc2n1-c1cccc(Cl)c1 |  | < 5.00 | < 4.00 |  | < 5.00 |  |  |  |  |  |  | Not Active | Not Active | 
13 | COc1cccc2c1C(=O)c1c(O)c3c(c(O)c1C2=O)C[C@@](O)(C(=O)CO)C[C@@H]3O[C@H]1C[C@H](N)[C@H](O)[C@H](C)O1 [DOXORUBICIN] |  |  |  | < 1 |  | < 0.3 µM |  | 4.92 |  |  |  |  |  | 5.59
